The subject of assay [1] is Pim-1 stably transfected U2OS human osteogenic sarcoma line. Nature of the assay: Pim cell assay U2OS (phospho-BAD normalized against total BAD), Pim-1 transfected. Format: cell-based. Particulars: Homo sapiens, U2OS.
For assay [2], the system named is Pim-2 stably transfected U2OS human osteogenic sarcoma line. Briefly: Pim cell assay U2OS (phospho-BAD normalized against total BAD), Pim-2 transfected. Format: cell-based. The settings on record: Homo sapiens, read-out: U2OS Pim2_Cell_IC50.
Assay [3] deals with full length recombinant Pim-3 (Homo sapiens (Human), UniProt Q86V86). Briefly: Pim enzyme assay (HTRF, phosphorylation of biotinylated-BAD (S112) peptide), Pim-3. The class given is biochemical. The settings on record: read-out: Pim3 IC50. A digest of the protocol:
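IC50 values were fitted with a 4-parameter logistic model to percent-of-control HTRF signal (Eu anti-phospho-BAD S112 antibody/streptavidin-APC). Reactions used full-length Pim-3 and biotin-BAD (S112) peptide, ran 1 h 30 min at RT (22 °C) in Hepes pH 7.0 buffer with BSA and DTT, and were stopped by 3 mM EDTA.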

Assay [4] addresses full length recombinant Pim-2 (Homo sapiens (Human), UniProt Q9P1W9). Nature of the assay: Pim enzyme assay (HTRF, phosphorylation of biotinylated-BAD (S112) peptide), Pim-2. The class given is biochemical. Particulars: read-out: Pim2_IC50.
The target in assay [5] is full length recombinant Pim-1 (Homo sapiens (Human), UniProt P11309). Briefly: Pim enzyme assay (HTRF, phosphorylation of biotinylated-BAD (S112) peptide), Pim-1. Format: biochemical. The settings on record: Pim-1 enzyme assay; read-out: Pim_1_IC50.
Chain of full length recombinant Pim-1 (P11309 whole entry): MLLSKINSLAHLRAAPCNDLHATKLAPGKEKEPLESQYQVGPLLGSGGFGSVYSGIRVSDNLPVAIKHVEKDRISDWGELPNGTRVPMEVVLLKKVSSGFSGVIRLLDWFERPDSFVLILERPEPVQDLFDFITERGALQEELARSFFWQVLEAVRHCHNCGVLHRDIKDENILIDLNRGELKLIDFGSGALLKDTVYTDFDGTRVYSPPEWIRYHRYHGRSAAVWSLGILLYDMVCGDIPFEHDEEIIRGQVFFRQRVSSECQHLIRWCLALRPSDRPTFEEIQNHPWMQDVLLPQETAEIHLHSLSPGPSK
Where [6] appears, read: read-out: U2OS Pim1_Cell_IC50, U2OS cells, Pim-1 transfected.

Where two headings read alike, the source gives them in different places.

Results on 22 molecules are retold here after patent US9321756B2, “Azole compounds as PIM inhibitors” (priority 2011, dated 2016).

Chain of full length recombinant Pim-2 (Q9P1W9 whole entry): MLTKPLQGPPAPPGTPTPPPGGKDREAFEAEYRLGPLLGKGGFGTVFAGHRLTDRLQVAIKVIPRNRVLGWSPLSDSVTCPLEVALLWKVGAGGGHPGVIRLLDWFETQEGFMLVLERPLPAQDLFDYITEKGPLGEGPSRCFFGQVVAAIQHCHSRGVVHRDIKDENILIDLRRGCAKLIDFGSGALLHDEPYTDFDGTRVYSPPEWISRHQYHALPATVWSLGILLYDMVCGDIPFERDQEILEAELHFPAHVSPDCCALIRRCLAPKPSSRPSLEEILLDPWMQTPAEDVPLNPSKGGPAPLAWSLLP

With `CN1CCN(c2cncc(-c3c[nH]c4ccc(-c5nnc(N)s5)cc34)n2)CC1=O` [Example 18, 4-(6-(5-(5-amino-1,3,4-thiadiazol-2-yl)-1H-indol-3-yl)pyrazin-2-yl)-1-methylpiperazin-2-one], the IC50 in assay [1] (read-out: U2OS Pim1_Cell_IC50) is over 31.6 µM; in assay [2] (U2OS cells, Pim-2 transfected), over 31.6 µM; in assay [3] (Pim-3 enzyme assay), 0.00741 µM; in assay [4] (Pim-2 enzyme assay) it was 0.0892 µM; in assay [5], 0.0158 µM.
As to `Nc1nnc(-c2ccc3[nH]cc(-c4cncc(-c5cccc(Cl)c5)n4)c3c2)o1` [Example 120, 5-(3-(6-(3-chlorophenyl)-2-pyrazinyl)-1H-indol-5-yl)-1,3,4-oxadiazol-2-amine], the IC50 in assay [1] (read-out: U2OS Pim1_Cell_IC50) is 0.242 µM; in assay [2] (U2OS cells, Pim-2 transfected), over 31.6 µM; in assay [3] (Pim-3 enzyme assay), 0.00423 µM; in assay [4] (Pim-2 enzyme assay), 0.0229 µM; in assay [5] it was 0.00941 µM.
For the molecule `CCN(CC)c1cncc(-c2c[nH]c3ccc(-c4nnc(N)s4)cc23)n1` [Example 154, 6-(5-(5-amino-1,3,4-thiadiazol-2-yl)-1H-indol-3-yl)-N,N-diethyl-2-pyrazinamine], the IC50 stood at 0.0434 µM in assay [1] (setting [6]); 2.3 µM in assay [2] (U2OS cells, Pim-2 transfected); 0.00145 µM in assay [3] (Pim-3 enzyme assay); 0.02 µM in assay [4] (Pim-2 enzyme assay); 0.002 µM in assay [5].
Consider `Nc1nnc(-c2ccc3[nH]cc(-c4nccc(N5CCOCC5)n4)c3c2)s1` [Example 11, 5-(3-(4-morpholinopyrimidin-2-yl)-1H-indol-5-yl)-1,3,4-thiadiazol-2-amine], for which the IC50 in assay [1] (read-out: U2OS Pim1_Cell_IC50) amounted to 0.911 µM; in assay [2] (U2OS cells, Pim-2 transfected), 2.2 µM; in assay [3] (Pim-3 enzyme assay), 0.00769 µM; in assay [4] (Pim-2 enzyme assay), 0.00861 µM; in assay [5], 0.0197 µM.
The like results for `CN(C)[C@H]1CCCN(c2ccnc(-c3c[nH]c4ccc(-c5nnc(N)o5)cc34)n2)C1` (stereo in doubt) [Example 107, 1-(2-(5-(5-amino-1,3,4-oxadiazol-2-yl)-1H-indol-3-yl)-4-pyrimidinyl)-N,N-dimethyl-3-piperidinamine] were, in that order, 3.86 µM, over 31.6 µM, 0.00374 µM, 0.00324 µM and 0.00598 µM.
Consider `Nc1nnc(-c2ccc3[nH]cc(-c4nccc(-c5ccccc5Cl)n4)c3c2)o1` [Example 118, 5-(3-(4-(2-chlorophenyl)-2-pyrimidinyl)-1H-indol-5-yl)-1,3,4-oxadiazol-2-amine], for which the IC50 in assay [1] (read-out: U2OS Pim1_Cell_IC50) was 0.217 µM; in assay [2] (U2OS cells, Pim-2 transfected), over 31.6 µM; in assay [3] (Pim-3 enzyme assay), 0.0157 µM; in assay [4] (Pim-2 enzyme assay) it was 0.0192 µM; in assay [5], 0.0167 µM.
For the molecule `CCOc1cccc(-c2c[nH]c3ccc(-c4nnc(N)s4)cc23)n1` [Example 164, 5-(3-(6-ethoxy-2-pyridinyl)-1H-indol-5-yl)-1,3,4-thiadiazol-2-amine], the IC50 in assay [1] (read-out: U2OS Pim1_Cell_IC50) came out at 0.141 µM; in assay [2] (U2OS cells, Pim-2 transfected), 3.73 µM; in assay [3] (Pim-3 enzyme assay), 0.00325 µM; in assay [4] (Pim-2 enzyme assay), 0.0216 µM; in assay [5], 0.0147 µM.
For `CC(C)Oc1cccc(-c2c[nH]c3ccc(-c4nnc(N5CC[C@H](N)C5)s4)cc23)n1` [Example 34, (S)-1-(5-(3-(6-Isopropoxypyridin-2-yl)-1H-indol-5-yl)-1,3,4-thiadiazol-2-yl)pyrrolidin-3-amine 2,2,2-trifluoroacetate], the IC50 in assay [1] (setting [6]) was 0.28 µM; in assay [2] (U2OS), over 31.6 µM; in assay [3] it was 0.00151 µM; in assay [4] it was 0.0248 µM; in assay [5], 0.0105 µM.
With `Nc1nnc(-c2ccc3[nH]cc(-c4nccc(C5CC5)n4)c3c2)o1` [Example 94, 5-(3-(4-cyclopropyl-2-pyrimidinyl)-1H-indol-5-yl)-1,3,4-oxadiazol-2-amine], the IC50 in assay [1] (setting [6]) was found to be 0.0752 µM; in assay [2] (U2OS cells, Pim-2 transfected), 0.28 µM; in assay [3] (Pim-3 enzyme assay) it was 0.000998 µM; in assay [4] (Pim-2 enzyme assay), 0.000984 µM; in assay [5], 0.00519 µM.
As to `Cc1nnc(-c2ccc3[nH]cc(-c4cccc(OC(C)C)n4)c3c2)o1` [Example 42, 2-(3-(6-isopropoxypyridin-2-yl)-1H-indol-5-yl)-5-methyl-1,3,4-oxadiazole], the IC50 in assay [1] (read-out: U2OS Pim1_Cell_IC50) came out at 0.273 µM; in assay [2] (U2OS cells, Pim-2 transfected), 15.6 µM; in assay [3] (Pim-3 enzyme assay), 0.01 µM; in assay [4] (Pim-2 enzyme assay), 0.0386 µM; in assay [5] it was 0.0212 µM.
For `Nc1nnc(-c2ccc3[nH]cc(-c4nccc(Oc5ccccc5)n4)c3c2)o1` [Example 106, 5-(3-(4-phenoxy-2-pyrimidinyl)-1H-indol-5-yl)-1,3,4-oxadiazol-2-amine], the IC50 in assay [1] (read-out: U2OS Pim1_Cell_IC50) amounted to 0.155 µM; in assay [2] (U2OS cells, Pim-2 transfected), 1.19 µM; in assay [3] (Pim-3 enzyme assay) it was 0.00569 µM; in assay [4] (Pim-2 enzyme assay), 0.00639 µM; in assay [5] it was 0.0152 µM.
For the molecule `C[C@H]1CCCCN1c1cccc(-c2c[nH]c3ccc(-c4nnc(N)s4)cc23)n1` (stereo in doubt) [Example 167, 5-(3-(6-(2-methyl-1-piperidinyl)-2-pyridinyl)-1H-indol-5-yl)-1,3,4-thiadiazol-2-amine], the IC50 in assay [1] (read-out: U2OS Pim1_Cell_IC50) came out at 0.421 µM; in assay [2] (U2OS cells, Pim-2 transfected) it was 25 µM; in assay [3] (Pim-3 enzyme assay), 0.00587 µM; in assay [4] (Pim-2 enzyme assay), 0.0644 µM; in assay [5] it was 0.019 µM.
The corresponding values for `Nc1nnc(-c2ccc3[nH]cc(-c4cccc(NCC5CC5)n4)c3c2)s1` [Example 204, 6-(5-(5-amino-1,3,4-thiadiazol-2-yl)-1H-indol-3-yl)-N-(cyclopropylmethyl)-2-pyridinamine] are 0.466 µM, 7.72 µM, 0.0182 µM, 0.145 µM and 0.0829 µM.
For the molecule `CNc1nnc(-c2ccc3[nH]cc(-c4nccc(N5CCN(C)CC5)n4)c3c2)s1` [Example 132, N-methyl-5-(3-(4-(4-methyl-1-piperazinyl)-2-pyrimidinyl)-1H-indol-5-yl)-1,3,4-thiadiazol-2-amine], the IC50 in assay [1] (read-out: U2OS Pim1_Cell_IC50) is 1.47 µM; in assay [2] (U2OS cells, Pim-2 transfected) it was 6.91 µM; in assay [3] (Pim-3 enzyme assay), 0.00398 µM; in assay [4] (Pim-2 enzyme assay), 0.0336 µM; in assay [5], 0.011 µM.
Turning to `COc1cncc(-c2c[nH]c3ccc(-c4nnc(N)s4)cc23)n1` [Example 212, 5-(3-(6-methoxy-2-pyrazinyl)-1H-indol-5-yl)-1,3,4-thiadiazol-2-amine], the IC50 in assay [1] (read-out: U2OS Pim1_Cell_IC50) was 0.177 µM; in assay [2] (U2OS cells, Pim-2 transfected), over 31.6 µM; in assay [3] (Pim-3 enzyme assay), 0.0149 µM; in assay [4] (Pim-2 enzyme assay) it was 0.0302 µM; in assay [5], 0.0383 µM.
On to `Nc1nnc(-c2ccc3[nH]cc(-c4cncc(NCC5CC5)n4)c3c2)o1` [Example 100, 6-(5-(5-amino-1,3,4-oxadiazol-2-yl)-1H-indol-3-yl)-N-(cyclopropylmethyl)-2-pyrazinamine], for which the IC50 in assay [1] (read-out: U2OS Pim1_Cell_IC50) came out at 0.0417 µM; in assay [2] (U2OS cells, Pim-2 transfected) it was 0.551 µM; in assay [3] (Pim-3 enzyme assay), 0.000668 µM; in assay [4] (Pim-2 enzyme assay), 0.00207 µM; in assay [5], 0.00116 µM.
In the case of `CNc1nnc(-c2ccc3[nH]cc(-c4ccnc(N5CCOCC5)n4)c3c2)s1` [Example 129, N-methyl-5-(3-(2-(4-morpholinyl)-4-pyrimidinyl)-1H-indol-5-yl)-1,3,4-thiadiazol-2-amine], the IC50 is 0.982 µM in assay [1] (setting [6]); over 31.6 µM in assay [2] (U2OS cells, Pim-2 transfected); 0.0123 µM in assay [3] (Pim-3 enzyme assay); 0.0824 µM in assay [4] (Pim-2 enzyme assay); 0.0313 µM in assay [5].
Turning to `COc1ccc(-c2c[nH]c3ccc(-c4nnc(N)s4)cc23)nc1OC` [Example 168, 5-(3-(5,6-dimethoxy-2-pyridinyl)-1H-indol-5-yl)-1,3,4-thiadiazol-2-amine], the IC50 in assay [1] (read-out: U2OS Pim1_Cell_IC50) is 0.111 µM; in assay [2] (U2OS cells, Pim-2 transfected), over 3.16 µM; in assay [3] (Pim-3 enzyme assay) it was 0.00634 µM; in assay [4] (Pim-2 enzyme assay), 0.0441 µM; in assay [5], 0.0232 µM.
Turning to `CC(C)Nc1nnc(-c2ccc3[nH]cc(-c4nccc(C5CC5)n4)c3c2)o1` [Example 264, 5-(3-(4-cyclopropyl-2-pyrimidinyl)-1H-indol-5-yl)-N-(1-methylethyl)-1,3,4-oxadiazol-2-amine], the IC50 in assay [1] (read-out: U2OS Pim1_Cell_IC50) turned out to be 0.0258 µM; in assay [2] (U2OS cells, Pim-2 transfected) it was 0.238 µM; in assay [3] (Pim-3 enzyme assay), 0.000435 µM; in assay [4] (Pim-2 enzyme assay), 0.00139 µM; in assay [5] it was 0.0014 µM.
For the molecule `CC(C)Oc1cccc(-c2c[nH]c3ccc(-c4nnc(N5CC[C@@H](N)C5)s4)cc23)n1` [Example 33, (R)-1-(5-(3-(6-Isopropoxypyridin-2-yl)-1H-indol-5-yl)-1,3,4-thiadiazol-2-yl)pyrrolidin-3-amine 2,2,2-trifluoroacetate], the IC50 in assay [1] (setting [6]) is 0.328 µM; in assay [2] (U2OS), 19.5 µM; in assay [3], 0.00132 µM; in assay [4], 0.0167 µM; in assay [5] it was 0.00884 µM.
Regarding `Nc1nnc(-c2ccc3[nH]cc(-c4cncc(-c5cccc(F)c5)n4)c3c2)o1` [Example 119, 5-(3-(6-(3-fluorophenyl)-2-pyrazinyl)-1H-indol-5-yl)-1,3,4-oxadiazol-2-amine], the IC50 in assay [1] (read-out: U2OS Pim1_Cell_IC50) is 0.085 µM; in assay [2] (U2OS cells, Pim-2 transfected), over 31.6 µM; in assay [3] (Pim-3 enzyme assay), 0.00215 µM; in assay [4] (Pim-2 enzyme assay) it was 0.0107 µM; in assay [5], 0.00607 µM.
The like results for `CC(C)Oc1cncc(-c2c[nH]c3ccc(-c4nnc(N)o4)cc23)n1` [Example 76, 5-(3-(6-(1-methylethoxy)-2-pyrazinyl)-1H-indol-5-yl)-1,3,4-oxadiazol-2-amine] were, in that order, 0.0358 µM, 0.636 µM, 0.00247 µM, 0.00518 µM and 0.00559 µM.
